Values of other authors in patent US11116769B2, “Tadalafil free base-containing film dosage form containing polyethylene glycol-based polymer and/or vinyl pyrrolidone-based polymer as dispersion stabilizer” (CTC BIO, INC., priority 2013, dated 2021).

## CN1CC(=O)N2[C@H](c3ccc4c(c3)OCO4)c3[nH]c4ccccc4c3C[C@@H]2C1=O [Tadalafil, (6R-trans)-6-(1,3-benzodioxol-5-yl)-2,3,6,7,12,12a-hexahydro-2-methyl-pyrazino[1′,2′:1,6]pyrido[3,4-b]indole-1,4-dione]
Some organic solvents such as methanol, ethanol and acetone
  solubility in organic solvents: slightly soluble
water
  solubility in water: practically insoluble
Water at 25° C., from U.S. Pat. No. 6,841,167
  water solubility: about 2 μg per 1 milliliter (mL)
